Here are results for 19 molecules from patent US11045448B2, “Piperidines as covalent menin inhibitors” (THE REGENTS OF THE UNIVERSITY OF MICHIGAN, priority 2017, dated 2021).

For orientation: IC50 means the concentration that gives 50% inhibition.

In the test the target is menin protein (Homo sapiens (Human), UniProt O00255). The experiment in a line: Fluorescence polarization (FP) competitive binding assay, menin binding affinity. To be noted: menin protein 4 nM, probe 2 nM, room temperature 30 minutes. As to the method: A fluorescence polarization (FP) competitive binding assay was used to determine the binding affinities of representative menin inhibitors. A FAM labeled fluorescent probe was designed and synthesized based on a MLL1 peptide (FAM-MM2). Equilibrium dissociation constant (Kd) value of FAM-MM2 to menin protein was determined from protein saturation experiments by monitoring the total fluorescence polarization of mixtures composed with the fluorescent probe at a fixed concentration and the protein with increasing concentrations up to full saturation. Serial dilutions of the protein were mixed with FAM-MM2 to a final volume of 200 μl in the assay buffer (PBS with 0.02% Bovine γ-Globulin and 4% DMSO. 0.01% Triton X-100 was added right before assays). Final FAM-MM2 concentration was 2 nM. Plates were incubated at room temperature for 30 minutes with gentle shaking to assure equilibrium. FP values in millipolarization units (mP) were measured using the Infinite M-1000 plate reader (Tecan U.S., Research Triangle Park, N.C.) in Microfluor 1 96-well, black, v-bottom plates (Thermo Scientific, Waltham, Mass.) at an excitation wavelength of 485 nm and an emission wavelength of 530 nm.
The IC50, see Table 3, of representative Compounds of the Disclosure were determined in a competitive binding experiment. Mixtures of 5 μl of the tested compounds in DMSO and 195 μl of preincubated protein/probe complex solution in the assay buffer were added into assay plates which were incubated at room temperature for 30 minutes with gentle shaking. Final concentration of the menin protein was 4 nM, and final probe concentration is 2 nM. Negative controls containing protein/probe complex only (equivalent to 0% inhibition), and positive controls containing only free probes (equivalent to 100% inhibition), were included in each assay plate. FP values were measured as described above. IC50 values were determined by nonlinear regression fitting of the competition curves.
(Polarisation of emitted light reports the rotation of a fluorescent probe.)

Chain of menin protein (O00255 whole entry): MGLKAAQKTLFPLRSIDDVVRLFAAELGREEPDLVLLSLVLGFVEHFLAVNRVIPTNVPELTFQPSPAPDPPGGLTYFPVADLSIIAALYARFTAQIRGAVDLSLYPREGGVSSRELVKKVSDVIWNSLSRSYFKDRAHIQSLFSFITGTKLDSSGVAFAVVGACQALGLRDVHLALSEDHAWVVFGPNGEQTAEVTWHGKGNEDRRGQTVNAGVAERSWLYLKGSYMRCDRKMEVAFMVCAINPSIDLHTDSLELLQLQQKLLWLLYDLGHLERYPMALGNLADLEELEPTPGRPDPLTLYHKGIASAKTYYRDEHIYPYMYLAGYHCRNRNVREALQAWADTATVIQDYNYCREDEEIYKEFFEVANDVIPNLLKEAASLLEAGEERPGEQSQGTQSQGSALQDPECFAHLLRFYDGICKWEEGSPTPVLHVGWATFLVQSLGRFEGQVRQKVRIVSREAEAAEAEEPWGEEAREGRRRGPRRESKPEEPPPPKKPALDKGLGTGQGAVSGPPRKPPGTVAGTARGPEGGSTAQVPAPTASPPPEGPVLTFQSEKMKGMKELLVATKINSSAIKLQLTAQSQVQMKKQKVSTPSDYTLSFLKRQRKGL

`C/C=C/C(=O)Nc1cccc(S(=O)(=O)c2ccc(N3CC(CN4CCC([C@@](C#N)(c5cccc(F)c5)[C@H]5CCC[C@@H]5NC(=O)OC)CC4)C3)cc2)c1` [Cpd. No. 62, methyl ((1S,2R)-2-((S)-(1-((1-(4-((3-((E)-but-2-enamido)phenyl)sulfonyl)phenyl)azetidin-3-yl)methyl)piperidin-4-yl)(cyano)(3-fluorophenyl)methyl)cyclopentyl)carbamate]: the half-maximal inhibitory concentration (IC50) was determined as 4 nM.

With `C=CS(=O)(=O)N[C@H]1CCC[C@@H]1[C@](C#N)(c1cccc(F)c1)C1CCN(CC2CN(c3ccc(C#N)cc3)C2)CC1` [Cpd. No. 79, N-((1S,2R)-2-((S)-cyano(1-((1-(4-cyanophenyl)azetidin-3-yl)methyl)piperidin-4-yl)(3-fluorophenyl)methyl)cyclopentyl)ethenesulfonamide], the half-inhibitory concentration (IC50) is 1070 nM.

As for `C=CC(=O)Nc1ccc(S(=O)(=O)c2ccc(N3CC(CN4CCC([C@@](C#N)(c5cccc(F)c5)[C@H]5CCC[C@@H]5NC(=O)OC)CC4)C3)cc2)cc1` [Cpd. No. 61, methyl ((1S,2R)-2-((S)-(1-((1-(4-((4-acrylamidophenyl)sulfonyl)phenyl)azetidin-3-yl)methyl)piperidin-4-yl)(cyano)(3-fluorophenyl)methyl)cyclopentyl)carbamate], the IC50 is 4 nM.

In the case of `COC(=O)N[C@H]1CCC[C@@H]1[C@](C#N)(c1cccc(F)c1)C1CCN(CC2(F)CN(c3ccc(S(=O)(=O)C4CN(C(=O)/C=C/CN(C)C)C4)cc3)C2)CC1` [Cpd. No. 69, methyl ((1S,2R)-2-((S)-cyano(1-((1-(4-((1-((E)-4-(dimethylamino)but-2-enoyl)azetidin-3-yl)sulfonyl)phenyl)-3-fluoroazetidin-3-yl)methyl)piperidin-4-yl)(3-fluorophenyl)methyl)cyclopentyl)carbamate], the concentration for half-maximal inhibition (IC50) turned out to be 9 nM.

Turning to `C=CC(=O)Nc1cccc(S(=O)(=O)c2ccc(N3CC(F)(CN4CCC([C@@](C#N)(c5cccc(F)c5)[C@H]5CCC[C@@H]5NC(=O)OC)CC4)C3)cc2)c1` [Cpd. No. 12, methyl ((1S,2R)-2-((S)-(1-((1-(4-((3-acrylamidophenyl)sulfonyl)phenyl)-3-fluoroazetidin-3-yl)methyl)piperidin-4-yl)(cyano)(3-fluorophenyl)methyl)cyclopentyl)carbamate], the IC50 came out at 42 nM.

For the molecule `COC(=O)N[C@H]1CCC[C@@H]1[C@](C#N)(c1cccc(F)c1)C1CCN(CC2CN(c3ccc(S(=O)(=O)c4cccc(NC(=O)/C=C/CN(C)C)c4)cc3)C2)CC1` [Cpd. No. 63, methyl ((1S,2R)-2-((S)-cyano(1-((1-(4-((3-((E)-4-(dimethylamino)but-2-enamido)phenyl)sulfonyl)phenyl)azetidin-3-yl)methyl)piperidin-4-yl)(3-fluorophenyl)methyl)cyclopentyl)carbamate], the IC50 was determined as 2 nM.

With `C=CC(=O)N1CC(S(=O)(=O)c2ccc(N3CC(CN4CCC([C@@](Cn5ccnc5CC)(c5cccc(F)c5)[C@H]5CCC[C@@H]5NC(=O)OC)CC4)C3)cc2)C1` [Cpd. No. 8, methyl ((1S,2R)-2-((S)-1-(1-((1-(4-((1-acryloylazetidin-3-yl)sulfonyl)phenyl)azetidin-3-yl)methyl)piperidin-4-yl)-2-(2-ethyl-1H-imidazol-1-yl)-1-(3-fluorophenyl)ethyl)cyclopentyl)carbamate], the IC50 was 2 nM.

For `N#Cc1ccc(N2CC(CN3CCC([C@@](C#N)(c4cccc(F)c4)[C@H]4CCC[C@@H]4NC(=O)CCl)CC3)C2)cc1` [compound 81, 2-chloro-N-((1S,2R)-2-((S)-cyano(1-((1-(4-cyanophenyl)azetidin-3-yl)methyl)piperidin-4-yl)(3-fluorophenyl)methyl)cyclopentyl)acetamide], the IC50 turned out to be 9 nM.

In the case of `C/C=C/C(=O)N1CC(S(=O)(=O)c2ccc(N3CC(CN4CCC([C@@](C#N)(c5cccc(F)c5)[C@H]5CCC[C@@H]5NC(=O)OC)CC4)C3)cc2)C1` [Cpd. No. 56, methyl ((1S,2R)-2-((S)-(1-((1-(4-((1-((E)-but-2-enoyl)azetidin-3-yl)sulfonyl)phenyl)azetidin-3-yl)methyl)piperidin-4-yl)(cyano)(3-fluorophenyl)methyl)cyclopentyl)carbamate], the IC50 worked out at 5 nM.

As to `C=CC(=O)N1CC(S(=O)(=O)c2ccc(OCCOc3ccc([C@@](C#N)(c4cccc(F)c4)[C@H]4CCC[C@@H]4NC(=O)OC)cc3)cc2)C1` [Cpd. No. 64, methyl ((1S,2R)-2-((R)-(4-(2-(4-((1-acryloylazetidin-3-yl)sulfonyl)phenoxy)ethoxy)phenyl)(cyano)(3-fluorophenyl)methyl)cyclopentyl)carbamate], the concentration for half-maximal inhibition (IC50) is > 10000 nM.

`COC(=O)N[C@H]1CCC[C@@H]1[C@](C#N)(c1cccc(F)c1)C1CCN(CC2CN(c3ccc(S(=O)(=O)C4CN(C(=O)/C=C/CN5CCCCC5)C4)cc3)C2)CC1` [Cpd. No. 71, methyl ((1S,2R)-2-((S)-cyano(3-fluorophenyl)(1-((1-(4-((1-((E)-4-(piperidin-1-yl)but-2-enoyl)azetidin-3-yl)sulfonyl)phenyl)azetidin-3-yl)methyl)piperidin-4-yl)methyl)cyclopentyl)carbamate]: the 50% inhibitory concentration (IC50) was 4 nM.

`C=CC(=O)Nc1cccc(S(=O)(=O)c2ccc(N3CC(CN4CCC([C@](C#N)(c5cccc(F)c5)[C@H]5CCC[C@@H]5OC(=O)NC)CC4)C3)cc2)c1` [Cpd. No. 4, (1S,2R)-2-((R)-(1-((1-(4-((3-acrylamidophenyl)sulfonyl)phenyl)azetidin-3-yl)methyl)piperidin-4-yl)(cyano)(3-fluorophenyl)methyl)cyclopentyl methylcarbamate]: the IC50 was 300 nM.

`C=CC(=O)N1CC(S(=O)(=O)c2ccc(N3CC(F)(CN4CCC([C@@](Cn5ccnc5CC)(c5cccc(F)c5)[C@H]5CCC[C@@H]5NC(=O)OC)CC4)C3)cc2)C1` [Cpd. No. 16, methyl ((1S,2R)-2-((S)-1-(1-((1-(4-((1-acryloylazetidin-3-yl)sulfonyl)phenyl)-3-fluoroazetidin-3-yl)methyl)piperidin-4-yl)-2-(2-ethyl-1H-imidazol-1-yl)-1-(3-fluorophenyl)ethyl)cyclopentyl)carbamate]: the IC50 came to 2 nM.

As for `COC(=O)N[C@H]1CCC[C@@H]1[C@](C#N)(c1cccc(F)c1)C1C[C@@H](C)N(CC2CN(c3ccc(S(=O)(=O)C4CN(C(=O)/C=C/CN(C)C)C4)cc3)C2)[C@@H](C)C1` (stereo partly drawn) [Cpd. No. 75, methyl ((1S,2R)-2-((1S)-cyano((2R,6S)-1-((1-(4-((1-((E)-4-(dimethylamino)but-2-enoyl)azetidin-3-yl)sulfonyl)phenyl)azetidin-3-yl)methyl)-2,6-dimethylpiperidin-4-yl)(3-fluorophenyl)methyl)cyclopentyl)carbamate], the IC50 came out at 6 nM.

On to `CCc1nccn1C[C@@](c1cccc(F)c1)(C1CCN(CC2(F)CN(c3ccc(S(=O)(=O)C4CN(C(=O)/C=C/CN(C)C)C4)cc3)C2)CC1)[C@H]1CCC[C@@H]1NC(=O)OC` [Cpd. No. 66, methyl ((1S,2R)-2-((S)-1-(1-((1-(4-((1-((E)-4-(dimethylamino)but-2-enoyl)azetidin-3-yl)sulfonyl)phenyl)-3-fluoroazetidin-3-yl)methyl)piperidin-4-yl)-2-(2-ethyl-1H-imidazol-1-yl)-1-(3-fluorophenyl)ethyl)cyclopentyl)carbamate], for which the concentration for half-maximal inhibition (IC50) is 1 nM.

As to `C=CC(=O)Nc1ccc(S(=O)(=O)c2ccc(N3CC(CN4CCC([C@](C#N)(c5cccc(F)c5)[C@H]5CCC[C@@H]5OC(=O)NC)CC4)C3)cc2)cc1` [Cpd. No. 11, (1S,2R)-2-((R)-(1-((1-(4-((4-acrylamidophenyl)sulfonyl)phenyl)azetidin-3-yl)methyl)piperidin-4-yl)(cyano)(3-fluorophenyl)methyl)cyclopentyl methylcarbamate], the half-inhibitory concentration (IC50) is 2200 nM.

For `C=CC(=O)N1CC(S(=O)(=O)c2ccc(N3CC(F)(CN4CCC([C@@](C#N)(c5cccc(F)c5)[C@H]5CCC[C@@H]5NC(=O)OC)CC4)C3)cc2)C1` [Cpd. No. 13, methyl ((1S,2R)-2-((S)-(1-((1-(4-((1-acryloylazetidin-3-yl)sulfonyl)phenyl)-3-fluoroazetidin-3-yl)methyl)piperidin-4-yl)(cyano)(3-fluorophenyl)methyl)cyclopentyl)carbamate], the half-inhibitory concentration (IC50) worked out at 24 nM.

For `C=CC(=O)N[C@H]1CCC[C@@H]1[C@](C#N)(c1cccc(F)c1)C1CCN(CC2CN(c3ccc(C#N)cc3)C2)CC1` [Cpd. No. 80, N-((1S,2R)-2-((S)-cyano(1-((1-(4-cyanophenyl)azetidin-3-yl)methyl)piperidin-4-yl)(3-fluorophenyl)methyl)cyclopentyl)acrylamide], the concentration for half-maximal inhibition (IC50) came to 7 nM.

For `C=CC(=O)Nc1ccc(S(=O)(=O)c2ccc(N3CC(CN4CCC([C@@](C#N)(c5cccc(F)c5)[C@H]5CCC[C@@H]5OC(=O)NC)CC4)C3)cc2)cc1` [Cpd. No. 10, (1S,2R)-2-((S)-(1-((1-(4-((4-acrylamidophenyl)sulfonyl)phenyl)azetidin-3-yl)methyl)piperidin-4-yl)(cyano)(3-fluorophenyl)methyl)cyclopentyl methylcarbamate], the IC50 turned out to be 2 nM.
